The values that follow come from patent US20230218548A1 (priority 2020, published 2023).

Where two headings read alike, the source gives them in different places.

One data set deals with SARS-CoV-2. The data set is described as follows: microbe, parasite or virus in culture. The data set is classed as cell-based, SARS-CoV-2 (USA-WA1/2020).
For a further data set, the system named is HeLa-ACE2 cells. The data set is classed as cell-based. The conditions noted are these: host cell toxicity, 24 h, read-out: HeLa-ACE2 EC50. Here is the method:
Compounds were prepared and plated in 384-well plates as for the infection assay. HeLa-ACE2 cells were seeded in the assay-ready plates at 1.6×10^3 cells/well in assay medium, and plates were incubated for 24 h at 37° C. with 5% CO2. To assess cell viability, the Image-IT DEAD green reagent (Thermo Fisher, 110291) was used according to manufacturer's instructions. Cells were fixed with 4% paraformaldehyde (PFA) and counterstained with DAPI. Fixed cells were imaged using the ImageXpress Micro Confocal High-Content Imaging System (Molecular Devices) with a 10x objective, and total live cells per well quantified in the acquired images using the Live Dead Application Module (MetaXpress).
The in vitro infection assay and the host cell cytotoxicity counterscreen data were uploaded to Genedata Screener, Version 16.0. Data were normalized to neutral (DMSO) […] inhibitor controls (2.5 μM remdesivir for antiviral effect, and 10 μM puromycin for infected host cell toxicity). For the uninfected host cell cytotoxicity counterscreen, 10 μM puromycin (Sigma) was used as a positive control. For dose-response experiments, compounds were tested in technical triplicates, and dose curves were fitted with the four parameter Hill Equation. Replicate data were analyzed using median condensing.

A further data set deals with ACE2 (Homo sapiens, UniProt Q9BYF1). The data set is described as follows: Mass spectrometry analysis of S-nitrosylated ACE2 protein. Type of data set: cell-based. The settings on record: after exposure to SNOC. Here is the method:
Biotin switch was performed as described above. […] The samples were desalted using a ZebaSpin desalting column (Thermo Scientific) pre-equilibrated with PBS, and biotinylated ACE2 protein was immunoprecipitated as described above. Immunoprecipitated ACE2 was eluted in 1% SDS solution and precipitated using methanol-chloroform. Dried pellets were dissolved in 8 M urea/100 mM triethylammonium bicarbonate (TEAB, pH 8.5). Samples were diluted to 2 M urea/100 mM TEAB, and proteins were trypsin digested overnight at 37° C. The digested ACE2 peptides were enriched a second time by biotin-avidin affinity to enrich biotinylated peptides representing the initial SNO sites. After avidin enrichment, peptides were eluted by reduction using tris(2-carboxyethyl)phosphine (TCEP).
Samples were analyzed on a Thermo Orbitrap Eclipse mass spectrometer (Thermo). Samples were injected directly onto a 25 cm, 100 μm ID column packed with ethylene bridged hybrid (BEH) 1.7 μm C18 resin (Waters). Samples were separated at a flow rate of 300 nl/min on a nLC 1200 (Thermo) using a gradient of solution A (0.1% formic acid in water, 5% acetonitrile) and solution B (80% acetonitrile/0.1% formic acid). Specifically, a gradient of 1-25% B over 100 min, an increase to 40% B over 20 min, an increase to 100% B over another 10 min and held at […] for a 10 min was used for a 140 min total run time. […]

Data set [1] addresses SARS-CoV-2 envelope (E) protein (Severe acute respiratory syndrome coronavirus 2, UniProt P0DTC4). The data set is classed as cell-based.
[2] abbreviates: Severe acute respiratory syndrome coronavirus 2, HeLa-ACE2, 24 h.

Chain of SARS-CoV-2 envelope (E) protein (P0DTC4 whole entry, looked up): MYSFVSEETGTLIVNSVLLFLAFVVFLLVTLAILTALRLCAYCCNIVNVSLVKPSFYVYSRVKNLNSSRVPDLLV
Chain of ACE2 (Q9BYF1 18-805): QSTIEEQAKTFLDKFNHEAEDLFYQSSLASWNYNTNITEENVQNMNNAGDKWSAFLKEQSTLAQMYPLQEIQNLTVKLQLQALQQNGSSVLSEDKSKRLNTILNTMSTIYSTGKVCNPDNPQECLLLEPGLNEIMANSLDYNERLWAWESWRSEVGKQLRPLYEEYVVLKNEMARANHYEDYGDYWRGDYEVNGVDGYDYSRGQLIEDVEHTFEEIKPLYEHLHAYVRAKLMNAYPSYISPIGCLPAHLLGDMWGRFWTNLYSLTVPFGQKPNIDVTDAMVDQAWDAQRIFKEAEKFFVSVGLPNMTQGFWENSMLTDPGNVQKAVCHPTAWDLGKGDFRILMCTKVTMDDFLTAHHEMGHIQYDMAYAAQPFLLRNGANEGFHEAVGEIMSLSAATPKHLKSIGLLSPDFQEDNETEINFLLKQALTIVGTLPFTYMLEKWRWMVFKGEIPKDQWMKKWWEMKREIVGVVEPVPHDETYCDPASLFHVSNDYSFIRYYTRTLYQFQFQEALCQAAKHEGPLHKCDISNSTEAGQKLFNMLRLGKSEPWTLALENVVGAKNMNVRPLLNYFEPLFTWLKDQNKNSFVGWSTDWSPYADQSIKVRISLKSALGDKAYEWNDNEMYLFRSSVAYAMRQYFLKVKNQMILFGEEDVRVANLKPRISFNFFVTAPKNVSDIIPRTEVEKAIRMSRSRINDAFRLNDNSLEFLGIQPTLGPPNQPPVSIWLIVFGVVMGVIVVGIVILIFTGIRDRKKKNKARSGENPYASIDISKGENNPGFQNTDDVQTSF

For orientation: EC50 means the concentration that produces a half-maximal response. High values mean a less potent agent, low ones a more potent agent. The molecule `CC12CC3(C)CC(CN)(C1)CC(O[N+](=O)[O-])(C2)C3` [NMT9] had an EC50 with SARS-CoV-2 of more than 200 µM. Moreover, in the data set with HeLa-ACE2 cells, the CC50 (host cell cytotoxicity) was more than 200 µM.
Turning to `NC12CC3CC(CC(C3)C1)C2` [NMT4, amantadine], the “Selectivity Index CC50/EC50” value with SARS-CoV-2 was more than 2.86. Besides, the 50% effective concentration (EC50) in the data set on SARS-CoV-2 (setting [2]) was 70 µM.
Turning to `NCC1(c2cccc(O[N+](=O)[O-])c2)C2CC3CC(C2)CC1C3` (stereo not shown) [NMT7], the EC50 in the data set with SARS-CoV-2 came to 90.7 µM. In addition, the CC50 (host cell cytotoxicity) in the data set on HeLa-ACE2 cells was more than 200 µM.
`CCC(O[N+](=O)[O-])C12CC3(C)CC(C)(CC(CCN)(C3)C1)C2` (stereo not shown) [NMT8] had a concentration giving a half-maximal response (EC50) in the data set on SARS-CoV-2 of 3.75 µM. Moreover, in the data set on HeLa-ACE2 cells, the CC50 (host cell cytotoxicity) was determined as 8.37 µM.
`CCC(CC)COC(=O)[C@H](C)N[P@](=O)(OC[C@H]1O[C@@](C#N)(c2ccc3c(N)ncnn23)[C@H](O)[C@@H]1O)Oc1ccccc1` [Remdesivir]: in the data set on SARS-CoV-2, the “Selectivity Index CC50/EC50” value was more than 16.94. In addition, in the data set with SARS-CoV-2 (setting [2]), it took 0.142 µM to reach a half-maximal effect (EC50).
`Cc1cccc(/C=N/Nc2cc(N3CCOCC3)nc(OCCc3ccccn3)n2)c1` [Apilimod]: the “Selectivity Index CC50/EC50” value in the data set with SARS-CoV-2 is more than 332.11. In the data set on SARS-CoV-2 (setting [2]), this molecule gave an EC50 of 0.0072 µM.
For `N[C@@H](CSN=O)C(=O)O` [SNOC], on ACE2, the “S-nitrosylated ACE2 sites by mass spectrometry” value was “S-nitrosylated ACE2 at Cys^261 and Cys^496”.
Regarding `CCC12CC3CC(N)(C1)CC(CO[N+](=O)[O-])(C3)C2` (stereo not shown) [NMT2], a half-maximal effect with SARS-CoV-2 (EC50) was put at 21.9 µM. In the data set with HeLa-ACE2 cells, the CC50 (host cell cytotoxicity) turned out to be 122 µM.
With `CC12CC3CC(C)(C1)CC(N)(C3)C2` [NMT1, memantine], in the data set on SARS-CoV-2, the “Selectivity Index CC50/EC50” value was 2.69. For the same molecule, in the data set with SARS-CoV-2 (setting [2]), the EC50 is 53.9 µM. Besides, the “Inhibition of E protein voltage-dependent K+ current” value in data set [1] is “inhibited in a dose-dependent manner”.
As to `COc1ccc(C[C@H](N)C(=O)N[C@H]2[C@@H](O)[C@H](n3cnc4c(N(C)C)ncnc43)O[C@@H]2CO)cc1` [Puromycin], in the data set with SARS-CoV-2, the “Selectivity Index CC50/EC50” value is 0.728. Moreover, the response in the data set with SARS-CoV-2 (setting [2]) was half-maximal at 0.617 µM (EC50).
In the data set with SARS-CoV-2, `CC12CC3(C)CC(CCN)(C1)CC(CO[N+](=O)[O-])(C2)C3` [NMT6] returned a concentration giving a half-maximal response (EC50) of 3.32 µM. Moreover, the CC50 (host cell cytotoxicity) in the data set on HeLa-ACE2 cells was found to be 10.5 µM.
